Test results reported in paper PMC3675134, “Comprehensive Enzymatic Analysis of the Cellulolytic System in Digestive Fluid of the Sea Hare Aplysia kurodai. Efficient Glucose Release from Sea Lettuce by Synergistic Action of 45 kDa Endoglucanase and 210 kDa ß-Glucosidase” (PLoS ONE, 2013).

Columns and labels:
210K ß-glucosidase [1] = tested on: T1, 210K ß-glucosidase; test: 4-methylumbelliferone release, fluorometric; Lineweaver-Burk; type: biochemical, Aplysia kurodai; conditions: 37°C
T1 construct: gene 210K BGL; native, purified from digestive fluid; 210 kDa by SDS-PAGE; glycoprotein
Description: 4-methylumbelliferone release, fluorometric; Lineweaver-Burk on 210K ß-glucosidase

210K ß-glucosidase [2] = tested on: T1, 210K ß-glucosidase; test: cellobiose hydrolysis; Lineweaver-Burk; type: biochemical, Aplysia kurodai; conditions: read-out: 210 K; 37°C; printed unit doubtful: the printed Vmax/Km scale implies mM; heading: 210 K
110K ß-glucosidase [3] = molecular target: T2, 110K ß-glucosidase (Aplysia kurodai, UniProt A0A1V1FXL2); test: inhibition of 4MU-ß-glucoside hydrolysis, fluorometric; Lineweaver-Burk; type: biochemical; conditions: substrate 4MU-ß-glucoside; 37°C; competitive
T2 construct: gene ApBGL; native, purified from digestive fluid; 110 kDa by SDS-PAGE; glycoprotein
Description: inhibition of 4MU-ß-glucoside hydrolysis, fluorometric; Lineweaver-Burk on 110K ß-glucosidase

210K ß-glucosidase [4] = molecular target: T1, 210K ß-glucosidase; test: inhibition of 4MU-ß-glucoside hydrolysis, fluorometric; Cornish-Bowden; type: biochemical, Aplysia kurodai; conditions: substrate 4MU-ß-glucoside; 37°C; mixed
Description: inhibition of 4MU-ß-glucoside hydrolysis, fluorometric; Cornish-Bowden on 210K ß-glucosidase

110K ß-glucosidase [5] = molecular target: T2, 110K ß-glucosidase; test: inhibition of 4MU-ß-glucoside hydrolysis; type: biochemical; conditions: substrate 4MU-ß-glucoside; compound name doubtful (preceding sentence speaks of conduritol B epoxide)

T2 sequence (A0A1V1FXL2 24-994): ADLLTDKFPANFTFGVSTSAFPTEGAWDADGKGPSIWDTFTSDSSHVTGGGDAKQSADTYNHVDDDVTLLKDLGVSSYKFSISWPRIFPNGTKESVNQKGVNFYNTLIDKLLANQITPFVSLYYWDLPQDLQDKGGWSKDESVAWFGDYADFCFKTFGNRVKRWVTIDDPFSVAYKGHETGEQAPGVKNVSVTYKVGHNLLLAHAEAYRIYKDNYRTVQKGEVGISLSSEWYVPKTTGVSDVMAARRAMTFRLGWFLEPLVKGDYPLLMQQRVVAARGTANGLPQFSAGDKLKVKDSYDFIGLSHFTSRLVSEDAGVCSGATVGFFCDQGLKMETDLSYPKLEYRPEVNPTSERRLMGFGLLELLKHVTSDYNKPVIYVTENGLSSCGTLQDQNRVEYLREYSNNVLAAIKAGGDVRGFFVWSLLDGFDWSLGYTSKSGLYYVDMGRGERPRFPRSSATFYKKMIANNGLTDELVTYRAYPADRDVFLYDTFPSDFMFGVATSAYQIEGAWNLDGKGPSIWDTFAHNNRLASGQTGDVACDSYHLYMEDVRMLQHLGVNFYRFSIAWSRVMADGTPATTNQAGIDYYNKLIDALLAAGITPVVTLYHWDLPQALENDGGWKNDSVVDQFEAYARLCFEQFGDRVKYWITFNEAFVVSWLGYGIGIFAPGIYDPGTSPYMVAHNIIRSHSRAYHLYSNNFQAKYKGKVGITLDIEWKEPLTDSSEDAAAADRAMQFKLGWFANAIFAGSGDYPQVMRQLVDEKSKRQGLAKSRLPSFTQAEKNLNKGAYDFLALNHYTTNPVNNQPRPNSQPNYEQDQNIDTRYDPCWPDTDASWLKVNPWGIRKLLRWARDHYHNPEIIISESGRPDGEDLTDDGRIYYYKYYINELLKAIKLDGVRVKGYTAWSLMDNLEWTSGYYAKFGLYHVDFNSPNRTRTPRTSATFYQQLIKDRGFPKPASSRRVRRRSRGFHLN

Cc1cc(=O)oc2cc(O[C@@H]3O[C@H](CO)[C@@H](O)[C@H](O)[C@H]3O)ccc12 [4MU-ß-glucoside]
Km (210K ß-glucosidase [1]): 105 ± 11 µM

OC[C@H]1O[C@@H](O[C@H]2[C@H](O)[C@@H](O)C(O)O[C@@H]2CO)[C@H](O)[C@@H](O)[C@@H]1O (stereo partly drawn) [cellobiose]
Km (210K ß-glucosidase [2]): 1.93 ± 0.15 mM

O=C1O[C@H](CO)[C@@H](O)[C@H](O)[C@H]1O [D-glucono-1,5-lactone]
Ki (110K ß-glucosidase [3]): 3.66 ± 0.47 µM | Ki (210K ß-glucosidase [4]): 8.1 ± 0.2 µM

Cc1cc(=O)oc2cc(O[C@@H]3O[C@H](CO)[C@H](O)[C@H](O)[C@H]3O)ccc12 [4MU-ß-galactoside]
Km (210K ß-glucosidase [1]): 199 ± 5 µM

Conduritol B-sulfate
% inhibition at 10 mM (110K ß-glucosidase [5]): 48%
